Source: US12324893B2, “Triptan microporation delivery system” (PassPort Technologies, Inc., priority 2019, dated 2025)
Where two headings read alike, the source gives them in different places.

Experiments:
[1] = Administration route study in guinea pigs (Example 5); assay type: in vivo; details: for AUC / Cmax / Tmax: guinea pig, blood
Description: This example describes an administration route study in guinea pigs using the same method mentioned in Example 4. In this study, base refers to Zomitriptan.
In this study, five groups of guinea pigs were tested under the following conditions: (1) Group 1 (10 mg base/4 ml, oral route); (2) Group 2 (5 mg base/2 ml, oral route); (3) Group 3 (2 mg base/4 mL, oral route); (4) Group 4 (2.0 mg base/cm^2, transdermal microporation); and (5) Group 5 (2 mg/200 μL, SubQ). The given bioavailability of Tables 6 is relative bioavailability against subcutaneous injection.

[2] = Effect of filament density, poration energy and filament array size on PK profile (Examples 7-9); design: species or system guinea pigs; details: guinea pig, in vivo; for bioavailability: sc, relative bioavailability against SC injection, read-out: Bioavailability ± SE; for AUC / Cmax / Tmax: topical or ocular
Description: This example describes various effects of filament density. To investigate the effect of filament density on PK profile and side effects (pain by poration and skin irritation), these studies were conducted. The filament density mainly affects the area to be utilized for the transfer of body fluid and ingredients in between skin and patch. The range of filament density was 100 filaments/cm^2 to 400 filaments/cm^2, and the poration energy was from 3 to 4 mJ/filament.
This example describes various effects to heating energy. The poration energy is related to the pore shape such as depth and width.
This example describes the selection of a desirable filament array size. Assuming the higher dose than 2 mg dose with the conditions 400 filaments/cm^2 filament density and 4 or 5 mJ/filament energy, filament array size may need to be made bigger. The range of dose was 0.5 to 4 mg, and the range of filament array size was 1.0 to 2.0 cm^2.

[3] = Group 1: 10 mg base/4 ml, oral route
[4] = Group 2: 5 mg base/2 ml, oral route
[5] = Group 3: 2 mg base/4 mL, oral route
[6] = topical or ocular, Group 4: 2.0 mg base/cm^2, transdermal microporation
[7] = 0.5 mg, Table 17 #1: dose 0.50 mg, 4 mJ/filament, filament array area 1.0 cm^2, 400 filaments/cm^2
[8] = 2 mg, Table 13 # 1: 100 filaments/cm^2, 3 mJ/filament, area 1.0 cm^2, patch 2.00 mg Zolmitriptan
[9] = 2 mg, Table 13 # 2: 200 filaments/cm^2, 3 mJ/filament, area 1.0 cm^2, patch 2.00 mg Zolmitriptan
[10] = 2 mg, Table 13 # 3: 400 filaments/cm^2, 3 mJ/filament, area 1.0 cm^2, patch 2.00 mg Zolmitriptan
[11] = 2 mg, Table 13 # 4: 100 filaments/cm^2, 4 mJ/filament, area 1.0 cm^2, patch 2.00 mg Zolmitriptan
[12] = 2 mg, Table 13 # 5: 200 filaments/cm^2, 4 mJ/filament, area 1.0 cm^2, patch 2.00 mg Zolmitriptan
[13] = 2 mg, Table 13 # 6: 400 filaments/cm^2, 4 mJ/filament, area 1.0 cm^2, patch 2.00 mg Zolmitriptan
[14] = 2 mg, Table 15 # 1: 400 filaments/cm^2, 2 mJ/filament, area 1.0 cm^2, patch 2.00 mg Zolmitriptan
[15] = 2 mg, Table 15 # 2: 400 filaments/cm^2, 3 mJ/filament, area 1.0 cm^2, patch 2.00 mg Zolmitriptan
[16] = 2 mg, Table 15 # 3: 400 filaments/cm^2, 4 mJ/filament, area 1.0 cm^2, patch 2.00 mg Zolmitriptan
[17] = 2 mg, Table 15 # 4: 400 filaments/cm^2, 5 mJ/filament, area 1.0 cm^2, patch 2.00 mg Zolmitriptan
[18] = 2 mg, Table 17 # 2: dose 2.00 mg, 4 mJ/filament, filament array area 1.0 cm^2, 400 filaments/cm^2
[19] = 3 mg, Table 17 # 3: dose 3.00 mg, 4 mJ/filament, filament array area 1.0 cm^2, 400 filaments/cm^2
[20] = 4 mg, Table 17 # 4: dose 4.00 mg, 4 mJ/filament, filament array area 1.5 cm^2, 400 filaments/cm^2
[21] = 4 mg, Table 17 # 5: dose 4.00 mg, 4 mJ/filament, filament array area 2.0 cm^2, 400 filaments/cm^2
[22] = 4 mg, Table 17 # 6: dose 4.00 mg, 5 mJ/filament, filament array area 1.5 cm^2, 400 filaments/cm^2

Question: With `CN(C)CCc1c[nH]c2ccc(C[C@H]3COC(=O)N3)cc12` [Zolmitriptan] as the molecule, how does the BA ([1]; Group 1: 10 mg base/4 ml, oral route, relative bioavailability against subcutaneous injection) read?
Answer: 16.2%

Question: What about the BA ([1]; Group 2: 5 mg base/2 ml, oral route, relative bioavailability against subcutaneous injection) of the same molecule?
Answer: 8.3%

Question: What about the BA ([1]; Group 3: 2 mg base/4 mL, oral route, relative bioavailability against subcutaneous injection) of the same molecule?
Answer: 4.5%

Question: And the BA ([1]; Group 4: 2.0 mg base/cm^2, transdermal microporation, relative bioavailability against subcutaneous injection)?
Answer: 84.2%

Question: What about the BA ([1]; Group 5: 2 mg/200 μL, SubQ, relative bioavailability against subcutaneous injection (reference)) of the same molecule?
Answer: 100.0%

Question: And the AUC [1, 3]?
Answer: 1.39 µg·h/mL

Question: And the Cmax [1, 3]?
Answer: 0.91 µg/mL

Question: What about the Tmax [1, 3] of the same molecule?
Answer: 0.44 h

Question: And the AUC [1, 4]?
Answer: 0.353 µg·h/mL

Question: And the Cmax [1, 4]?
Answer: 0.259 µg/mL

Question: What about the Tmax [1, 4] of the same molecule?
Answer: 0.56 h

Question: And the AUC [1, 5]?
Answer: 0.077 µg·h/mL

Question: And the Cmax [1, 5]?
Answer: 0.025 µg/mL

Question: And the Tmax [1, 5]?
Answer: 0.33 h

Question: What about the AUC ([1]; sc, Group 5: 2 mg/200 μL, SubQ) of the same molecule?
Answer: 1.71 µg·h/mL

Question: What about the Cmax ([1]; sc, Group 5: 2 mg/200 μL, SubQ) of the same molecule?
Answer: 3.88 µg/mL

Question: And the Tmax ([1]; sc, Group 5: 2 mg/200 μL, SubQ)?
Answer: 0.09 h

Question: And the Cmax [1, 6]?
Answer: 0.864 µg/mL

Question: And the Tmax [1, 6]?
Answer: 0.5 h

Question: And the AUC ([1]; topical or ocular, Group 4: 2.0 mg base/cm^2, transdermal microporation (400 pores/cm^2, 5.2 mJ/filament))?
Answer: 1.44 µg·h/mL

Question: And the bioavailability ([2]; 0.5 mg, Table 17 #1: dose 0.50 mg, 4 mJ/filament, 1.0 cm^2, 400 filaments/cm^2)?
Answer: 70.6 ± 4.5%

Question: And the bioavailability ([2]; 2 mg, Table 13 # 1: 100 filaments/cm^2, 3 mJ/filament, 1.0 cm^2, 2.00 mg patch)?
Answer: 11.5 ± 0.6%

Question: What about the bioavailability ([2]; 2 mg, Table 13 # 2: 200 filaments/cm^2, 3 mJ/filament, 1.0 cm^2, 2.00 mg patch) of the same molecule?
Answer: 73.8 ± 8.6%

Question: And the bioavailability ([2]; 2 mg, Table 13 # 3: 400 filaments/cm^2, 3 mJ/filament, 1.0 cm^2, 2.00 mg patch)?
Answer: 85 ± 5.6%

Question: What about the bioavailability ([2]; 2 mg, Table 13 # 4: 100 filaments/cm^2, 4 mJ/filament, 1.0 cm^2, 2.00 mg patch) of the same molecule?
Answer: 50.3 ± 5.5%

Question: And the bioavailability ([2]; 2 mg, Table 13 # 5: 200 filaments/cm^2, 4 mJ/filament, 1.0 cm^2, 2.00 mg patch)?
Answer: 49.9 ± 7.7%

Question: What about the bioavailability ([2]; 2 mg, Table 13 # 6: 400 filaments/cm^2, 4 mJ/filament, 1.0 cm^2, 2.00 mg patch) of the same molecule?
Answer: 102 ± 13.3%

Question: What about the bioavailability ([2]; 2 mg, Table 15 # 1: 400 filaments/cm^2, 2 mJ/filament, 1.0 cm^2, 2.00 mg patch) of the same molecule?
Answer: 72.4 ± 10%

Question: And the bioavailability ([2]; 2 mg, Table 15 # 2: 400 filaments/cm^2, 3 mJ/filament, 1.0 cm^2, 2.00 mg patch)?
Answer: 85 ± 5.6%

Question: And the bioavailability ([2]; 2 mg, Table 15 # 3: 400 filaments/cm^2, 4 mJ/filament, 1.0 cm^2, 2.00 mg patch)?
Answer: 102 ± 13.3%

Question: What about the bioavailability ([2]; 2 mg, Table 15 # 4: 400 filaments/cm^2, 5 mJ/filament, 1.0 cm^2, 2.00 mg patch) of the same molecule?
Answer: 95.5 ± 5.3%

Question: And the bioavailability ([2]; 2 mg, Table 17 # 2: dose 2.00 mg, 4 mJ/filament, 1.0 cm^2, 400 filaments/cm^2)?
Answer: 102 ± 13.3%

Question: What about the bioavailability ([2]; 3 mg, Table 17 # 3: dose 3.00 mg, 4 mJ/filament, 1.0 cm^2, 400 filaments/cm^2) of the same molecule?
Answer: 76 ± 4.9%

Question: What about the bioavailability ([2]; 4 mg, Table 17 # 4: dose 4.00 mg, 4 mJ/filament, 1.5 cm^2, 400 filaments/cm^2) of the same molecule?
Answer: 88.9 ± 4.6%

Question: What about the bioavailability ([2]; 4 mg, Table 17 # 5: dose 4.00 mg, 4 mJ/filament, 2.0 cm^2, 400 filaments/cm^2) of the same molecule?
Answer: 105 ± 7.9%

Question: What about the bioavailability ([2]; 4 mg, Table 17 # 6: dose 4.00 mg, 5 mJ/filament, 1.5 cm^2, 400 filaments/cm^2) of the same molecule?
Answer: 97.9 ± 12.3%

Question: What about the AUC [2, 7] of the same molecule?
Answer: 0.364 ± 0.023 µg·h/mL

Question: What about the Cmax [2, 7] of the same molecule?
Answer: 0.19 ± 0.034 µg/mL

Question: What about the Tmax [2, 7] of the same molecule?
Answer: 0.63 ± 0.13 h

Question: And the AUC [2, 8]?
Answer: 0.238 ± 0.013 µg·h/mL

Question: What about the Cmax [2, 8] of the same molecule?
Answer: 0.06 ± 0.013 µg/mL

Question: And the Tmax [2, 8]?
Answer: 2.75 ± 1.25 h

Question: What about the AUC [2, 9] of the same molecule?
Answer: 1.52 ± 0.177 µg·h/mL

Question: What about the Cmax [2, 9] of the same molecule?
Answer: 0.52 ± 0.051 µg/mL

Question: And the Tmax [2, 9]?
Answer: 1.31 ± 0.19 h

Question: What about the AUC [2, 10] of the same molecule?
Answer: 1.75 ± 0.116 µg·h/mL

Question: And the Cmax [2, 10]?
Answer: 0.487 ± 0.063 µg/mL

Question: And the Tmax [2, 10]?
Answer: 1.63 ± 0.13 h

Question: What about the AUC [2, 11] of the same molecule?
Answer: 1.03 ± 0.113 µg·h/mL

Question: What about the Cmax [2, 11] of the same molecule?
Answer: 0.222 ± 0.03 µg/mL

Question: What about the Tmax [2, 11] of the same molecule?
Answer: 2.75 ± 0.72 h

Question: And the AUC [2, 12]?
Answer: 1.03 ± 0.159 µg·h/mL

Question: What about the Cmax [2, 12] of the same molecule?
Answer: 0.423 ± 0.03 µg/mL

Question: And the Tmax [2, 12]?
Answer: 0.81 ± 0.06 h

Question: And the AUC [2, 13]?
Answer: 2.1 ± 0.275 µg·h/mL

Question: And the Cmax [2, 13]?
Answer: 0.896 ± 0.191 µg/mL

Question: And the Tmax [2, 13]?
Answer: 1.06 ± 0.16 h

Question: What about the AUC [2, 14] of the same molecule?
Answer: 1.49 ± 0.206 µg·h/mL

Question: What about the Cmax [2, 14] of the same molecule?
Answer: 0.484 ± 0.13 µg/mL

Question: And the Tmax [2, 14]?
Answer: 2.33 ± 0.83 h

Question: And the AUC [2, 15]?
Answer: 1.75 ± 0.116 µg·h/mL

Question: And the Cmax [2, 15]?
Answer: 0.487 ± 0.063 µg/mL

Question: What about the Tmax [2, 15] of the same molecule?
Answer: 1.63 ± 0.13 h

Question: What about the AUC [2, 16] of the same molecule?
Answer: 2.1 ± 0.275 µg·h/mL

Question: And the Cmax [2, 16]?
Answer: 0.896 ± 0.191 µg/mL

Question: And the Tmax [2, 16]?
Answer: 1.06 ± 0.16 h

Question: What about the AUC [2, 17] of the same molecule?
Answer: 1.97 ± 0.108 µg·h/mL

Question: And the Cmax [2, 17]?
Answer: 0.752 ± 0.089 µg/mL

Question: What about the Tmax [2, 17] of the same molecule?
Answer: 1.33 ± 0.33 h

Question: What about the AUC [2, 18] of the same molecule?
Answer: 2.1 ± 0.275 µg·h/mL

Question: And the Cmax [2, 18]?
Answer: 0.896 ± 0.191 µg/mL

Question: What about the Tmax [2, 18] of the same molecule?
Answer: 1.06 ± 0.16 h

Question: And the AUC [2, 19]?
Answer: 2.35 ± 0.152 µg·h/mL

Question: And the Cmax [2, 19]?
Answer: 0.756 ± 0.115 µg/mL

Question: And the Tmax [2, 19]?
Answer: 1.63 ± 0.13 h

Question: What about the AUC [2, 20] of the same molecule?
Answer: 3.66 ± 0.189 µg·h/mL

Question: And the Cmax [2, 20]?
Answer: 1.31 ± 0.129 µg/mL

Question: And the Tmax [2, 20]?
Answer: 1.33 ± 0.17 h

Question: And the AUC [2, 21]?
Answer: 4.31 ± 0.315 µg·h/mL

Question: And the Cmax [2, 21]?
Answer: 2.21 ± 0.358 µg/mL

Question: And the Tmax [2, 21]?
Answer: 1.25 ± 0.14 h

Question: What about the AUC [2, 22] of the same molecule?
Answer: 4.03 ± 0.506 µg·h/mL

Question: And the Cmax [2, 22]?
Answer: 1.71 ± 0.185 µg/mL

Question: And the Tmax [2, 22]?
Answer: 0.75 ± 0.14 h
